In brackets after ≈: the same amount, converted by molar mass. Like-named read-outs stand apart in the source and are kept apart here.
Columns and labels:
[1] = DPPH free radical scavenging activity; format: biochemical; conditions: for DPPH scavenging EC50: analyzed using XLSTAT software
ABTS assay = format: biochemical; conditions: for ABTS scavenging EC50: analyzed using XLSTAT software
[2] = Metal chelating activity assay; format: biochemical; conditions: for Metal chelating EC50: analyzed using XLSTAT software
egg albumin = target: T1, egg albumin (Gallus gallus, UniProt P01012); test: Protein egg albumin denaturation assay; format: biochemical
T1 construct: albumin was extracted from a fresh egg collected from local market of Jorhat, India; from tissue; host or cells: fresh egg (egg white), local market
T1 sequence (P01012 whole entry): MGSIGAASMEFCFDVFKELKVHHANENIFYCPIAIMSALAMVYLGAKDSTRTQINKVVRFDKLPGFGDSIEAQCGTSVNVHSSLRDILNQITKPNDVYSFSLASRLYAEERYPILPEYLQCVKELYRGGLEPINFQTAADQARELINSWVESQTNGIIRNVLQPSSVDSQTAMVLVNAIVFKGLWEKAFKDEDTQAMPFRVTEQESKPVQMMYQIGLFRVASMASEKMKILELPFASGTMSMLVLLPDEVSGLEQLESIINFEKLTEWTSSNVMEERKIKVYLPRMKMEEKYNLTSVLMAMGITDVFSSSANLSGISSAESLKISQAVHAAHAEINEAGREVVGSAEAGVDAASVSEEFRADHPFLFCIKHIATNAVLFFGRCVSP

α-Amylase = test: Antidiabetic activity assay (α-amylase inhibitory); format: biochemical
Acetylcholinesterase = Acetylcholinesterase (Homo sapiens, UniProt P22303); test: Acetylcholinesterase inhibitory assay; format: biochemical
Sequence of Acetylcholinesterase (P22303 32-614, species assumed): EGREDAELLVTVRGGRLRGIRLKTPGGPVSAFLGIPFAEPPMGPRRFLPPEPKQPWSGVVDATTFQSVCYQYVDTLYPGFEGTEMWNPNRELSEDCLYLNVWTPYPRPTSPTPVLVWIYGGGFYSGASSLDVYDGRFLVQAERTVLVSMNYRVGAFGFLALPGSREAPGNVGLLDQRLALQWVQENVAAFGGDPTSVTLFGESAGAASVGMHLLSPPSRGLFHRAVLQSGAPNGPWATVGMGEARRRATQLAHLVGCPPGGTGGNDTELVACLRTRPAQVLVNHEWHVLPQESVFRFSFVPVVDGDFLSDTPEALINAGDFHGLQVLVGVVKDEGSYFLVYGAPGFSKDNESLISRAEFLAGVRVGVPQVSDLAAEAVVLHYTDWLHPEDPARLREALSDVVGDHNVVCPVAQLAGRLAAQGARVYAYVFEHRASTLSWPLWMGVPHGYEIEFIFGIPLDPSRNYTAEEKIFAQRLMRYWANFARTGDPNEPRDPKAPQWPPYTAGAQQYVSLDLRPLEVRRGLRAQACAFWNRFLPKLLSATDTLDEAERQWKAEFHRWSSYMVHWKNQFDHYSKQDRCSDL

[3] = system: Staphylococcus aureus ATCC-11632; test: Broth micro dilution MIC; format: cell-based; conditions: ATCC11632, S. aureus
[4] = system: Bacillus subtilis ATCC-11774; test: Broth micro dilution MIC; format: cell-based; conditions: ATCC11774, B. subtilis
[5] = system: Streptococcus mutans ATCC-25175; test: Broth micro dilution MIC; format: cell-based; conditions: ATCC25175, S.mutans
[6] = system: Aspergillus fumigatus ATCC-204305; test: Broth micro dilution MIC; format: cell-based; conditions: ATCC204305, A. fumigatus
Allium cepa root tips [7] = test: Allium cepa assay, mitotic index and stages of dividing cells
Source text: (§1) The frequency of chromosomal aberration was checked following protocol of Babatunde and Bakare[31].

Allium cepa root [8] = conditions: 1 μL/mL
AChE = system: AChE; design: method as in PMID 19351555; conditions: cited from earlier work
BChE = system: BChE; design: method as in PMID 19351555; conditions: cited from earlier work
A. parasiticus = conditions: cited from earlier work
[9] = system: Staphylococcus aureus ATCC-11632; test: Disc diffusion, zone of inhibition
[10] = system: Bacillus subtilis ATCC-11774; test: Disc diffusion, zone of inhibition
B. cereus ATCC-10876 = test: Disc diffusion, zone of inhibition; conditions: Bacillus cereus
[11] = system: Streptococcus mutans ATCC-25175; test: Disc diffusion, zone of inhibition
[12] = system: Aspergillus fumigatus ATCC-204305; test: Disc diffusion, zone of inhibition
A. niger ATCC-16885 = test: Disc diffusion, zone of inhibition
[13] = system: Saccharomyces cerevisiae ATCC-9763; test: Disc diffusion, zone of inhibition
[14] = system: Candida albicans ATCC-66027; test: Disc diffusion, zone of inhibition
[15] = design: method as in PMID 23181593; conditions: cited from earlier work
[16] = design: method as in PMID 23181593; conditions: at 100 μg/mL; cited from earlier work
Allium cepa root tips [17] = test: Allium cepa assay, chromosomal aberration test; conditions: 01.00 µL/mL; 72 h
Source text: as §1

Allium cepa root [18] = test: Allium cepa assay, root growth; conditions: 1 μL/mL
[19] = system: Salmonella typhimurium ATCC-13311; test: Disc diffusion, zone of inhibition; format: cell-based; conditions: Salmonella enterica, S. typhimurium, read-out: Zone of inhibition, standard drug
Protocol: Ciprofloxacin and fluconazole were used as standard antimicrobial drugs at a concentration (10 μg/disc) for bacterial and fungal strains, respectively.
MHA was used for culturing the bacteria from bacterial broth and kept at 37 °C for 24 h. The fungal broth was used to prepare fungal culture in PDB and it was kept at 28 °C for 48 h.

[20] = analyzed using Graph Pad Prism software
[21] = analyzed using MS-EXCEL software
[22] = Aspergillus fumigatus, ATCC204305

In the case of `C/C=C/c1ccc(OC)cc1` [Anethole standard, anethole], the “DPPH scavenging IC50” value [1, 20] is reported as 0.58 ± 0.048 µg/mL, the “DPPH scavenging IC50” value [1, 21] is reported as 10.94 ± 0.026 µg/mL and the “DPPH scavenging EC50” value [1] is reported as 8.69 ± 0.058 µg/mL. The “ABTS scavenging IC50” value (ABTS assay; [20]) was 34.9 ± 0.004 µg/mL, the “ABTS scavenging IC50” value (ABTS assay; [21]) was 9.26 ± 0.002 µg/mL and the “ABTS scavenging EC50” value (ABTS assay) was 9.48 ± 0.048 µg/mL. For the same compound, the “Metal chelating IC50” value [2, 20] was 12.15 ± 0.032 µg/mL, the “Metal chelating IC50” value [2, 21] was 31.02 ± 0.018 µg/mL and the “Metal chelating EC50” value [2] was 29.54 ± 0.032 µg/mL. The EC50 (egg albumin) was 132 µM, the IC50 (egg albumin; Protein denaturation IC50, analyzed using Graph Pad Prism software) was 1380 µM and the IC50 (egg albumin; Protein denaturation IC50, analyzed using MS-EXCEL software) was 130 µM. For the same compound, the “α-Amylase inhibitory IC50” value (α-Amylase; [20]) was 13.08 ± 0.016 µg/mL, the “α-Amylase inhibitory IC50” value (α-Amylase; [21]) was 22.16 ± 0.12 µg/mL and the “α-Amylase inhibitory EC50” value (α-Amylase; analyzed using XLSTAT software) was 21.75 ± 0.008 µg/mL. It also gave an EC50 (Acetylcholinesterase) of 208 µM, an IC50 (Acetylcholinesterase; Acetylcholinesterase inhibitory IC50, analyzed using Graph Pad Prism software) of 145 µM and an IC50 (Acetylcholinesterase; Acetylcholinesterase inhibitory IC50, analyzed using MS-EXCEL software) of 228 µM. For the same compound, the MIC [3] was 95 µg/mL (≈ 641 µM), the MIC [4] was 90 µg/mL (≈ 607 µM) and the MIC [5] was 15 µg/mL (≈ 101 µM). For the same compound, the MIC [6] was 65 µg/mL (≈ 439 µM), the “Genotoxic effect (in words)” value (Allium cepa root tips [7]) was “no genotoxic effect” and the “Anaphase, dividing cells” value (Allium cepa root tips [7]; Allium cepa, 1 μL/mL) was 13.51%. The “Metaphase, dividing cells” value (Allium cepa root tips [7]; Allium cepa, 1 μL/mL) was 18.92%, the “Prophase, dividing cells” value (Allium cepa root tips [7]; Allium cepa, 1 μL/mL) was 59.46% and the “Telophase, dividing cells” value (Allium cepa root tips [7]; Allium cepa, 1 μL/mL) was 8.10%. The “Root length before treatment ± SD” value (Allium cepa root [8]; 0 h) was 7.71 ± 0.016 cm, the “Root length after treatment ± SD” value (Allium cepa root [8]; 72 h) was 8.36 ± 0.009 cm and the “AChE inhibitory IC50” value (AChE) was 134.70 µg/mL. The “BChE inhibitory IC50” value (BChE) was 209.60 µg/mL, the “Concentration that inhibits completely the growth of A. parasiticus” value (A. parasiticus) was 400 µg/mL and the zone of inhibition at 100 µg/mL ([9]; ATCC11632) was 8 mm. The zone of inhibition at 250 µg/mL ([9]; ATCC11632) was 10 mm, the zone of inhibition at 500 µg/mL ([9]; ATCC11632) was 14 mm and the zone of inhibition at 100 µg/mL ([10]; ATCC11774) was 8 mm. The zone of inhibition at 250 µg/mL ([10]; ATCC11774) was 11 mm, the zone of inhibition at 500 µg/mL ([10]; ATCC11774) was 13 mm and the zone of inhibition at 250 µg/mL (B. cereus ATCC-10876; ATCC10876) was 13 mm. For the same compound, the zone of inhibition at 500 µg/mL (B. cereus ATCC-10876; ATCC10876) was 16 mm, the zone of inhibition at 50 µg/mL ([11]; ATCC25175) was 12 mm and the zone of inhibition at 100 µg/mL ([11]; ATCC25175) was 16 mm. It also gave a zone of inhibition at 250 µg/mL ([11]; ATCC25175) of 18 mm, a zone of inhibition at 500 µg/mL ([11]; ATCC25175) of 23 mm and a zone of inhibition at 250 µg/mL [12, 22] of 14 mm. For the same compound, the zone of inhibition at 500 µg/mL [12, 22] was 18 mm, the zone of inhibition at 250 µg/mL (A. niger ATCC-16885; Aspergillus niger, ATCC16885) was 16 mm and the zone of inhibition at 500 µg/mL (A. niger ATCC-16885; Aspergillus niger, ATCC16885) was 21 mm. For the same compound, the zone of inhibition at 500 µg/mL ([13]; Saccharomyces cerevisiae, ATCC9763) was 16 mm and the zone of inhibition at 500 µg/mL ([14]; Candida albicans, ATCC66027) was 19 mm.

In the case of `O=C1O[C@H]([C@@H](O)CO)C(O)=C1O` [Ascorbic acid], the “DPPH scavenging IC50” value [1, 20] is reported as 0.60 ± 0.121 µg/mL, the “DPPH scavenging IC50” value [1, 21] is reported as 17.27 ± 0.004 µg/mL and the “DPPH scavenging EC50” value [1] is reported as 17.55 ± 0.056 µg/mL. For the same compound, the “ABTS scavenging IC50” value (ABTS assay; [20]) was 39.31 ± 0.84 µg/mL, the “ABTS scavenging IC50” value (ABTS assay; [21]) was 17.61 ± 0.012 µg/mL and the “ABTS scavenging EC50” value (ABTS assay) was 19.54 ± 0.121 µg/mL. For the same compound, the DPPH scavenging activity ([15]; at 1000 μg/mL) was 99.65%, the “DPPH IC50” value [15] was 5.15 µg/mL and the Reducing power [16] was 0.85.

With `O=C(O)CN(CCN(CC(=O)O)CC(=O)O)CC(=O)O` [EDTA, ethylenediamminetetracetic acid] the “Metal chelating IC50” value [2, 20] was 12.11 ± 0.002 µg/mL, the “Metal chelating IC50” value [2, 21] was 29.92 ± 0.002 µg/mL and the “Metal chelating EC50” value [2] was 29.33 ± 0.064 µg/mL.

With `CCOS(C)(=O)=O` [EMS, ethyl methanesulphonate] the “Metaphase, dividing cells” value (Allium cepa root tips [7]; Allium cepa root tips, 1 μL/mL) was 13.27%, the Mitotic index (Allium cepa root tips [7]; Allium cepa root tips, 1 μL/mL) was 1.96% and the “Prophase, dividing cells” value (Allium cepa root tips [7]; Allium cepa root tips, 1 μL/mL) was 86.73%. For the same compound, the “Chromosomal aberration: Breakage” value (Allium cepa root tips [17]) was 15, the “Chromosomal aberration: Bridges” value (Allium cepa root tips [17]) was 30 and the “Chromosomal aberration: Clumped” value (Allium cepa root tips [17]) was 14. The “Chromosomal aberration: Multipolarity” value (Allium cepa root tips [17]) was 21, the “Chromosomal aberration: Stickiness” value (Allium cepa root tips [17]) was 28 and the Total abberations (Allium cepa root tips [17]) was 21.60%. The “Root length after treatment ± SD” value (Allium cepa root [18]; after treatment) was 7.31 ± 0.013 cm and the “Root length before treatment ± SD” value (Allium cepa root [18]; before treatment) was 7.24 ± 0.014 cm.

`O=C(O)c1cn(C2CC2)c2cc(N3CCNCC3)c(F)cc2c1=O` [ciprofloxacin, Ciprofloxacin] gave a zone of inhibition at 10 µg/disc [19] of 21 ± 0.015 mm, a zone of inhibition at 10 µg/disc ([9]; ATCC11632, read-out: Zone of inhibition, standard drug) of 19 ± 0.017 mm and a zone of inhibition at 10 µg/disc ([10]; ATCC11774, read-out: Zone of inhibition, standard drug) of 16 ± 0.015 mm. For the same compound, the zone of inhibition at 10 µg/disc (B. cereus ATCC-10876; ATCC10876, read-out: Zone of inhibition, standard drug) was 15 ± 0.013 mm and the zone of inhibition at 10 µg/disc ([11]; ATCC25175, read-out: Zone of inhibition, standard drug) was 7 ± 0.015 mm.

In the case of `OC(Cn1cncn1)(Cn1cncn1)c1ccc(F)cc1F` [fluconazole], the “Zone of inhibition, standard drug” value ([12]; A. fumigatus, 10 µg/disc) is reported as 16 ± 0.011 mm, the zone of inhibition at 10 µg/disc ([12]; Aspergillus fumigatus, ATCC204305, read-out: Zone of inhibition, standard drug) is reported as 16 mm and the “Zone of inhibition, standard drug” value (A. niger ATCC-16885; A. niger, 10 µg/disc) is reported as 12 ± 0.013 mm. The zone of inhibition at 10 µg/disc (A. niger ATCC-16885; Aspergillus niger, ATCC16885, read-out: Zone of inhibition, standard drug) was 12 mm, the “Zone of inhibition, standard drug” value ([13]; S. cerevisiae, 10 µg/disc) was 14 ± 0.016 mm and the zone of inhibition at 10 µg/disc ([13]; Saccharomyces cerevisiae, ATCC9763, read-out: Zone of inhibition, standard drug) was 14 mm. The “Zone of inhibition, standard drug” value ([14]; C. albicans, 10 µg/disc) was 20 ± 0.014 mm and the zone of inhibition at 10 µg/disc ([14]; Candida albicans, ATCC66027, read-out: Zone of inhibition, standard drug) was 20 mm.

Source: PMC9200763 (Scientific Reports, 2022)
